# Measurements taken from patent publication US10273235B2, “Compositions and methods for inhibiting β-lactamase” (LegoChem Biosciences, Inc., priority 2015, dated 2019).
# Where “and” joins values, the source holds several entries; their conditions need not be identical. Equal entries are not always repeated.
# Assays:
# [1] = tested on: P. aeruginosa ATCC27853; experiment: BLI potentiation MIC (broth microdilution), P. aeruginosa ATCC27853 (PoxB, AmpC); type: cell-based; details: BLI fixed 4 ug/ml; incubation 19 h
# Protocol: (§1) MIC90 (μg/mL) is the lowest concentration of an antibiotic that will inhibit the visible growth of 90% of microorganisms after incubation as compared with a control group to which the antibiotic is not treated.
# (§2) MIC values were measured by the broth microdilution method developed by the Clinical and Laboratory Standards Institute (CLSI) (see CLSI M07-A9, Methods for Dilution Antimicrobial Susceptibility Test for Bacteria that Grow Aerobically; Approved Standard-Ninth Edition (2012): CLSI, Villanova, Pa.). The in vitro antibacterial activity was measured with respect to the following 9 clinical isolates: P. aeruginosa (3 strains); K. pneumoniae (6 strains). The in vitro antibacterial activity of selected compounds was measured with respect to the following 15 clinical isolates: K. pneumoniae (15 strains).
# [2] = tested on: P. aeruginosa ARC3506; experiment: BLI potentiation MIC, P. aeruginosa ARC3506 (VEB-1, OXA-10, OprD−, AmpC); type: cell-based; details: BLI fixed 4 ug/ml; incubation 19 h
# Protocol: as §1, §2
# [3] = tested on: P. aeruginosa ARC3514; experiment: BLI potentiation MIC, P. aeruginosa ARC3514 (KPC-2, OprD−, AmpC); type: cell-based; details: BLI fixed 4 ug/ml; incubation 19 h
# Protocol: as §1, §2
# [4] = tested on: K. pneumoniae ATCC700603; experiment: BLI potentiation MIC, K. pneumoniae ATCC700603 (SHV-3); type: cell-based; details: BLI fixed 4 ug/ml; incubation 19 h
# Protocol: as §1, §2
# [5] = tested on: K. pneumoniae NDM-506; experiment: BLI potentiation MIC, K. pneumoniae NDM-506; type: cell-based; details: BLI fixed 4 ug/ml; incubation 19 h
# Protocol: as §1, §2
# [6] = tested on: K. pneumoniae 5576; experiment: BLI potentiation MIC, K. pneumoniae 5576 (SHV-11, CMY-2, DHA-1, TEM-1); type: cell-based; details: BLI fixed 4 ug/ml; incubation 19 h
# Protocol: as §1, §2
# [7] = tested on: K. pneumoniae 3784; experiment: BLI potentiation MIC, K. pneumoniae 3784 (SHV-11, SHV-12, DHA-1); type: cell-based; details: BLI fixed 4 ug/ml; incubation 19 h
# Protocol: as §1, §2
# [8] = tested on: K. pneumoniae 4006; experiment: BLI potentiation MIC, K. pneumoniae 4006 (SHV-12, CTX-M-15, TEM-1, OXA-9); type: cell-based; details: BLI fixed 4 ug/ml; incubation 19 h
# Protocol: as §1, §2
# [9] = tested on: K. pneumoniae 4248; experiment: BLI potentiation MIC, K. pneumoniae 4248 (SHV-11, CTX-M-15, TEM-1, OXA-1); type: cell-based; details: BLI fixed 4 ug/ml; incubation 19 h
# Protocol: as §1, §2
# [10] = tested on: K. pneumoniae 5216; experiment: BLI potentiation MIC, K. pneumoniae 5216 (TEM-1A); type: cell-based; details: BLI fixed 4 ug/ml; incubation 19 h
# Protocol: as §1, §2
# [11] = tested on: K. pneumoniae 7586; experiment: BLI potentiation MIC, K. pneumoniae 7586; type: cell-based; details: BLI fixed 4 ug/ml; incubation 19 h
# Protocol: as §1, §2
# [12] = tested on: K. pneumoniae 6540; experiment: BLI potentiation MIC, K. pneumoniae 6540; type: cell-based; details: BLI fixed 4 ug/ml; incubation 19 h
# Protocol: as §1, §2
# [13] = tested on: K. pneumoniae 6839; experiment: BLI potentiation MIC, K. pneumoniae 6839 (SHV-11, SHV-12, DHA-1); type: cell-based; details: BLI fixed 4 ug/ml; incubation 19 h
# Protocol: as §1, §2
# [14] = tested on: K. pneumoniae 89; experiment: BLI potentiation MIC, K. pneumoniae 89; type: cell-based; details: BLI fixed 4 ug/ml; incubation 19 h
# Protocol: as §1, §2
# [15] = tested on: K. pneumoniae 100; experiment: BLI potentiation MIC, K. pneumoniae 100; type: cell-based; details: BLI fixed 4 ug/ml; incubation 19 h
# Protocol: as §1, §2
# [16] = tested on: K. pneumoniae 101; experiment: BLI potentiation MIC, K. pneumoniae 101; type: cell-based; details: BLI fixed 4 ug/ml; incubation 19 h
# Protocol: as §1, §2
# [17] = tested on: K. pneumoniae 23; experiment: BLI potentiation MIC, K. pneumoniae 23; type: cell-based; details: BLI fixed 4 ug/ml; incubation 19 h
# Protocol: as §1, §2
# [18] = tested on: K. pneumoniae 5971(KOX); experiment: BLI potentiation MIC, K. pneumoniae 5971(KOX); type: cell-based; details: BLI fixed 4 ug/ml; incubation 19 h
# Protocol: as §1, §2
# [19] = tested on: K. pneumoniae MP14; experiment: BLI potentiation MIC, K. pneumoniae MP14; type: cell-based; details: BLI fixed 4 ug/ml; incubation 19 h
# Protocol: as §1, §2
# [20] = tested on: K. pneumoniae 5117; experiment: BLI potentiation MIC, K. pneumoniae 5117 (SHV-11, TEM-1); type: cell-based; details: BLI fixed 4 ug/ml; incubation 19 h
# Protocol: as §1, §2
# [21] = tested on: K. pneumoniae CL5761; experiment: MIC of strain used for extraction of enzymes, K. pneumoniae CL5761 (KPC-3, TEM-216, SHV-5); type: cell-based; details: BLI: 4 ug/mL
# Protocol: as §1, §2
# [22] = tested on: E. coli K0519020; experiment: MIC of strain used for extraction of enzymes, E. coli K0519020 (CTX-M-15, TEM-1, OXA-1, AmpC (NC_000913)); type: cell-based; details: BLI: 4 ug/mL
# [23] = tested on: E. aerogenes K9911729; experiment: MIC of strain used for extraction of enzymes, E. aerogenes K9911729 (CMY-10, TEM-1, SHV-12, AmpC (DQ478697)); type: cell-based; details: BLI: 4 ug/mL
# [24] = biological target: KPC-3 β-lactamase (class A) (Klebsiella pneumoniae, UniProt Q9F663, H272Y); experiment: Inhibitory activity against β-lactamases (nitrocefin), KPC-3; type: biochemical, K. pneumoniae; details: 100 μM nitrocefin, 30° C., pH 6.8; read-out: IC50 values, KPC-3
# KPC-3 β-lactamase (class A), sequence (Q9F663 25-293 H272Y): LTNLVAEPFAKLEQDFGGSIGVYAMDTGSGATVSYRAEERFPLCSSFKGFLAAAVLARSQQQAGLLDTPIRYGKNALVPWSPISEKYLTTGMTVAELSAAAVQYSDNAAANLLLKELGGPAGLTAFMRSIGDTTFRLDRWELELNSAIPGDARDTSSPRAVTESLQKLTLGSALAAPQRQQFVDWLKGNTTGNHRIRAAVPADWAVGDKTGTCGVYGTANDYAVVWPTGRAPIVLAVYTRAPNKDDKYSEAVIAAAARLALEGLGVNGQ
# Protocol: (§3) More diluted stocks were prepared as necessary. Enzyme activity was determined by monitoring the change of absorbance at 492 nm using the characteristic molecular extinction coefficient (Δε492=17,400 M^−1 cm^−1) of nitrocefin by a Shimazu UV-1650PC spectrophotometer. The nitrocefin was purchased from OXOID. Kinetic measurements were run at 30° C. in 10 mM MES[2-(N-morpholino)ethanesulfonic acid]buffer (pH 6.8) or 10 mM MES[2-(N-morpholino)ethanesulfonic acid] buffer (pH 6.8), […] BSA and 50 mM sodium bicarbonate. Reactions were performed in 2.5 mL cuvettes with 100 μM nitrocefin and initiated by adding 1.5 nM to 2.5 nM enzyme. The first 180 s of each reaction was used to measure initial rates. Data were evaluated using Microsoft Excel. Concentration dependent inhibition of enzyme was measured using different concentrations of inhibitors resulting from two-fold dilution series. Reaction progress at every concentration of inhibitor was measured in triplicates. IC50 values were calculated using 4-parameter log fits using XL Fit curve fitting software (www.idbs.com) for Excel using the following equation:
# (§4) [formula] where y is the remaining enzyme activity (in %) and x is the corresponding concentration. he fitted IC50 parameter is the relative IC50, and is defined as the concentration giving a response half way between the fitted top (B) and bottom (A) of the curve.
# [25] = biological target: T1, CMY-10 β-lactamase (class C) (Klebsiella aerogenes, UniProt Q99QC1); experiment: Inhibitory activity against β-lactamases (nitrocefin), CMY-10; type: biochemical; details: 100 μM nitrocefin, 30° C., pH 6.8; read-out: IC50 values, CMY-10
# T1 construct: MICs of bacterial strains used for extraction of enzymes; endogenous in cells
# T1 sequence (Q99QC1 24-382): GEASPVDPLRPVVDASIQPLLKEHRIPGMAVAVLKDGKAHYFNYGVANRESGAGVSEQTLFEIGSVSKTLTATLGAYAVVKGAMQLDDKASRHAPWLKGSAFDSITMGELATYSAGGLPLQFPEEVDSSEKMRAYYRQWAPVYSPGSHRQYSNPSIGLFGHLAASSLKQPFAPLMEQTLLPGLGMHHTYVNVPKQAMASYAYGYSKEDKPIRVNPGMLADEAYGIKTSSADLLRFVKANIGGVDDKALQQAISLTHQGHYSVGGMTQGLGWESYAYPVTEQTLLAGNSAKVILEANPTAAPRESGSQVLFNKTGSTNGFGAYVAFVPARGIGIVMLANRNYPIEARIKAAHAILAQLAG
# Protocol: as §3, §4
# [26] = biological target: T2, OXA-48 β-lactamase (class D) (Klebsiella pneumoniae, UniProt Q6XEC0); experiment: Inhibitory activity against β-lactamases (nitrocefin), OXA-48; type: biochemical; details: 100 μM nitrocefin, 30° C., pH 6.8
# T2 construct: MICs of bacterial strains used for extraction of enzymes; endogenous in cells; host or cells: bacterial strain carrying OXA-48 (E. coli according to the earlier reading)
# T2 sequence (Q6XEC0 23-265, looked up): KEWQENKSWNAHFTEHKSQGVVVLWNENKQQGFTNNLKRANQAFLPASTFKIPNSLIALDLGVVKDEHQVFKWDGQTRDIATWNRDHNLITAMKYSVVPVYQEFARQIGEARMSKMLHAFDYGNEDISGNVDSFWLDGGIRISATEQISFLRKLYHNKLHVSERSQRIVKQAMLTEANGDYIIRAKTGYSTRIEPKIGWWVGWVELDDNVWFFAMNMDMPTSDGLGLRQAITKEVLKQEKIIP
# Protocol: as §3, §4
compound,measurement,setting,value
NCCONC(=O)[C@@H]1CC[C@@H]2CN1C(=O)N2OS(=O)(=O)O [OP-595],MIC of Ceftazidime with BLI,[1],2 µg/mL
same,MIC of LCB10-0200 with BLI,[1],0.25 μg/mL and 0.5 μg/mL
same,MIC of Meropenem with BLI,[1],2 µg/mL
same,MIC of Ceftazidime with BLI,[2],32 µg/mL
same,MIC of LCB10-0200 with BLI,[2],0.25 μg/mL
same,MIC of Meropenem with BLI,[2],64 µg/mL
same,MIC of Ceftazidime with BLI,[3],8 µg/mL
same,MIC of LCB10-0200 with BLI,[3],0.125 μg/mL and 0.25 μg/mL
same,MIC of Meropenem with BLI,[3],>64 µg/mL
same,MIC of Ceftazidime with BLI,[4],0.125 µg/mL
same,MIC of LCB10-0200 with BLI,[4],0.125 μg/mL
same,MIC of Meropenem with BLI,[4],0.125 µg/mL and 0.0625 µg/mL
same,MIC of Ceftazidime with BLI,[5],0.125 µg/mL
same,MIC of Meropenem with BLI,[5],>64 µg/mL
same,MIC of Ceftazidime with BLI,[6],0.125 µg/mL
same,MIC of LCB10-0200 with BLI,[6],0.0625 μg/mL
same,MIC of Meropenem with BLI,[6],0.03125 µg/mL and 0.0625 µg/mL
same,MIC of Ceftazidime with BLI,[7],0.5 µg/mL
same,MIC of LCB10-0200 with BLI,[7],0.0625 μg/mL
same,MIC of Meropenem with BLI,[7],0.25 µg/mL
same,MIC of Ceftazidime with BLI,[8],0.125 µg/mL
same,MIC of LCB10-0200 with BLI,[8],0.03125 μg/mL and 0.0625 μg/mL
same,MIC of Meropenem with BLI,[8],0.0625 µg/mL
same,MIC of Ceftazidime with BLI,[9],0.0625 µg/mL
same,MIC of LCB10-0200 with BLI,[9],<0.03125 μg/mL
same,MIC of Meropenem with BLI,[9],0.0625 µg/mL
same,MIC of LCB10-0200 with BLI,[10],0.25 μg/mL and 0.5 μg/mL
same,MIC of Meropenem with BLI,[10],2 µg/mL
same,MIC of LCB10-0200 with BLI,[11],0.03125 μg/mL and 0.0625 μg/mL
same,MIC of LCB10-0200 with BLI,[12],0.0625 μg/mL
same,MIC of Meropenem with BLI,[12],0.125 µg/mL and 0.0625 µg/mL
same,MIC of LCB10-0200 with BLI,[13],0.0625 μg/mL
same,MIC of LCB10-0200 with BLI,[14],0.0625 μg/mL
same,MIC of LCB10-0200 with BLI,[15],0.0625 μg/mL
same,MIC of LCB10-0200 with BLI,[16],0.25 μg/mL
same,MIC of Meropenem with BLI,[16],0.125 µg/mL and 0.0625 µg/mL
same,MIC of LCB10-0200 with BLI,[17],1 μg/mL
same,MIC of LCB10-0200 with BLI,[18],8 μg/mL and 16 μg/mL
same,MIC of LCB10-0200 with BLI,[19],0.03125 μg/mL and <0.0312 μg/mL
same,MIC of LCB10-0200 with BLI,[20],0.0625 μg/mL
same,MIC of Meropenem with BLI,[20],0.5 µg/mL and 0.25 µg/mL
same,MIC of LCB10-0200 with BLI,[21],0.25 μg/mL
same,MIC of Meropenem with BLI,[21],1 µg/mL
same,MIC of LCB10-0200 with BLI,[22],0.0625 μg/mL
same,MIC of Meropenem with BLI,[22],0.125 µg/mL
same,MIC of LCB10-0200 with BLI,[23],<0.0312 μg/mL
same,MIC of Meropenem with BLI,[23],<0.0312 µg/mL
same,IC50,[24],0.0637 µM
same,IC50,[25],42.6 µM
same,IC50,[26],44.2 µM
